Reference: US20190085013A1, “NUCLEOTIDE AND NUCLEOSIDE THERAPEUTIC COMPOSITIONS AND USES RELATED THERETO” (EMORY UNIVERSITY, priority 2016, published 2019)

Experiments:
[1] = molecular target: NS5B-621 from HCV GT-1b Con-1 (Hepatitis C virus genotype 1b, UniProt Q9WMX2); assay: NS5B RNA-dependent RNA polymerase inhibition assay; type: biochemical; conditions: 1 μM NTP substrates including either [32P]-CTP or [32P]-UTP, columns not distinguished
Procedure: Compounds were assayed for inhibition of NS5B-621 from HCV GT-1b Con-1. Reactions included purified recombinant enzyme, 1 u/μL negative-strand HCV IRES RNA template, and 1 μM NTP substrates including either [^32P]-CTP or [^32P]-UTP. Assay plates were incubated at 27° C. for 1 hour before quench. [^32P] incorporation into macromolecular product was assessed by filter binding.

[2] = system: HCV Replicon 1a-H77; assay: HCV replicon GT-1a luciferase assay; type: cell-based; conditions: Hepatitis C virus, GT1A, GT-1a H77 replicon
[3] = system: HCV Replicon 1b-Con1; assay: HCV replicon GT-1b luciferase assay; type: cell-based; conditions: Hepatitis C virus, GT1B, read-out: HCV Replicon 1b-Con1 EC50
Excerpt: Cell Culture—The reporter cell line Huh-luc/neo-ET was obtained from Dr. Ralf Bartenschlager (Department of Molecular Virology, Hygiene Institute, University of Heidelberg, Germany) by ImQuest BioSciences through a specific licensing agreement. This cell line harbors the persistently replicating I389luc-ubi-neo/NS3-3′/ET replicon containing the firefly luciferase gene-ubiquitin-neomycin phosphotransferase fusion protein and EMCV IRES driven NS3-5B HCV coding sequences containing the ET tissue culture adaptive mutations (E1202G, Tl2081, and K1846T). A stock culture of the Huh-luc/neo-ET was expanded by culture in DMEM supplemented with I 0% FCS, 2 mM glutamine, penicillin ([…])/streptomycin (100 μg/mL) and I× nonessential amino acids plus 1 mg/mL G418. The cells were split 1:4 and cultured for two passages in the same media plus 250 μg/mL G418. […] 5% C02 then anti-HCV activity was measured by luciferase endpoint. […]
Measurement of Virus Replication-HCV replication from the replicon assay system was measured by luciferase activity using the britelite plus luminescence reporter gene kit according to the manufacturer's instructions (Perkin Elmer, Shelton, Conn.). […] The well contents were transferred to a white 96-well plate and luminescence was measured within 15 minutes using the Wallac 1450Microbeta Trilux liquid scintillation counter. […]

Structure (SMILES): O=c1ccn([C@@H]2O[C@H](COP(=O)(O)OP(=O)(O)OP(=O)(O)O)[C@@H](O)[C@]2(O)CF)c(=O)[nH]1 [DRIVE-0060]
- IC50 ([1]; first IC50 column): 1 µM
- IC50 ([1]; second IC50 column): 13.4 µM

Structure (SMILES): CC(C)OC(=O)[C@H](C)N[P@](=O)(OC[C@H]1O[C@@H](n2ccc(=O)[nH]c2=O)[C@@](O)(CF)[C@@H]1O)Oc1ccccc1 [DRIVE-0087]
- EC50 [2]: 0.54 µM
- EC50 [3]: 0.75 µM
